Measured values reported in paper PMC2667214, “End-Tagging of Ultra-Short Antimicrobial Peptides by W/F Stretches to Facilitate Bacterial Killing” (PLoS ONE, 2009).
Residues, ends and D or L forms follow the SMILES beside them. No end group written: not given here.

Experiments:
human leukocyte elastase = molecular target: T1, human leukocyte elastase (Homo sapiens, UniProt P08246); test: Protease sensitivity assay; type: in vitro ADME; settings: peptide 1 µg, neutrophil elastase 0.4 µg, 30 µl, 3 hours 37°C, SDS-PAGE 16.5% Tris-Tricine, Coomassie
T1 construct: purchased Calbiochem (La Jolla, USA)
T1 sequence (P08246 30-267): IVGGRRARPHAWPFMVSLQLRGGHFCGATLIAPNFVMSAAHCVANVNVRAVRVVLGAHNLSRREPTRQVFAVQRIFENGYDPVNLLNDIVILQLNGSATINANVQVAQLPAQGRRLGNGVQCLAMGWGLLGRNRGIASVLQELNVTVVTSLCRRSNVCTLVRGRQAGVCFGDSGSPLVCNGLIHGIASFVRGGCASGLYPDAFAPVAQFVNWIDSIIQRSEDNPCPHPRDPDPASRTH
Protocol: (§1) Peptides (1 µg) were incubated at 37°C with S. aureus aureolysin (0.1 µg, 25000 units/mg), S. aureus V8 proteinase (0.1 µg, 2000 mU), both from BioCol GmbH (Potsdam, Germany), or neutrophil elastase (0.4 µg, 29 units/mg; Calbiochem (La Jolla, USA)) in a total volume of 30 µl for 3 hours. The materials were analyzed on 16.5% precast sodium dodecyl sulfate polyacrylamide (SDS-PAGE) Tris-Tricine gels (BioRad, Hercules, USA) and analyzed after staining with Coomassie Blue R-250 (Merck, Darmstadt, Germany).
(§2) Figure 5 (A) Protease sensitivity of peptides. KNK10 and KNK10-WWWWW were incubated with (+) or without (−) the S. aureus enzymes aureolysin (Aur), V8 proteinase (V8), or human leukocyte elastase (HLE), and analyzed by SDS-PAGE (16.5% Tris-Tricine gels). (B) Activities of peptides in an ex vivo skin infection model. Pig skin was inoculated with E. coli ATCC 25922 (upper panel) or S. aureus ATCC 29213 (lower panel). Peptides at 1 mM were added after an incubation time of 4 h. Bacteria were collected after 2 h and cfu determined (mean values are presented, n = 6). Note the logarithmic scale on the y-axis. (In Figure 5B, the difference between tagged and non-tagged peptide is statistically significant in all cases (P<0.002, one way ANOVA).)

S. aureus V8 proteinase = molecular target: T2, S. aureus V8 proteinase (Staphylococcus aureus, UniProt P0C1U8); type: in vitro ADME; settings: peptide 1 µg, V8 proteinase 0.1 µg, 30 µl, 3 hours 37°C, SDS-PAGE 16.5% Tris-Tricine, Coomassie
T2 construct: purchased BioCol GmbH (Potsdam, Germany)
Protocol: as §1, §2

S. aureus aureolysin = molecular target: T3, S. aureus aureolysin (Staphylococcus aureus, UniProt P81177); type: in vitro ADME; settings: peptide 1 µg, aureolysin 0.1 µg, 30 µl, 3 hours 37°C, SDS-PAGE 16.5% Tris-Tricine, Coomassie
T3 construct: purchased BioCol GmbH (Potsdam, Germany)
Protocol: as §1, §2

[1] = test system: Escherichia coli ATCC 25922; type: cell-based; settings: ATCC 25922, 100
Protocol: (§3) Essentially as described earlier, [31] bacteria were grown to mid-logarithmic phase in 10 ml of full-strength (3% w/v) trypticase soy broth (TSB) (Becton-Dickinson, Cockeysville, USA). The microorganisms were then washed once with 10 mM Tris, pH 7.4. Subsequently, 4×10^6 bacterial colony forming units were added to 15 ml of the underlay agarose gel, consisting of 0.03% (w/v) TSB, 1% (w/v) low electroendosmosis type (EEO) agarose (Sigma-Aldrich, St. Louis, USA) and 0.02% (v/v) Tween 20 (Sigma-Aldrich, St. Louis, USA). The underlay was poured into a Ø 144 mm petri dish. After agarose solidification, 4 mm-diameter wells were punched and 6 µl of peptide with required concentration added to each well. Plates were incubated at 37°C for 3 hours to allow diffusion of the peptides. The underlay gel was then covered with 15 ml of molten overlay (6% TSB and 1% Low-EEO agarose in distilled H2O). […]
(§4) Figure 1 Antibacterial and hemolytic activity of peptides. (A) Antibacterial activity of PEPscreen peptides as assessed by radial diffusion assay (RDA) in the presence and absence of 0.15 M NaCl against E. coli ATCC 25922 and S. aureus ATCC 29213, as well as hemolysis. […] The absorbance of hemoglobin release was measured at 540 nm and is expressed as % of Triton X-100 induced hemolysis. […]

[2] = test system: Staphylococcus aureus ATCC 29213; type: cell-based; settings: ATCC 29213, 100
Protocol: as §3, §4

T2 sequence (P0C1U8 69-336): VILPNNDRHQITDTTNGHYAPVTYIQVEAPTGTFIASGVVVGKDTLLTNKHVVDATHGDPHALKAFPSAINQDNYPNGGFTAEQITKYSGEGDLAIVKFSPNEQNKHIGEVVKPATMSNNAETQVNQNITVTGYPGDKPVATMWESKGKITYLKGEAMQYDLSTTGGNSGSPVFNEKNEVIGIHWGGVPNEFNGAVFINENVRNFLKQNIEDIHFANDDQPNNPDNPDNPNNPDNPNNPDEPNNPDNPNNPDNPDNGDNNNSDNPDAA
T3 sequence (P81177 209-509): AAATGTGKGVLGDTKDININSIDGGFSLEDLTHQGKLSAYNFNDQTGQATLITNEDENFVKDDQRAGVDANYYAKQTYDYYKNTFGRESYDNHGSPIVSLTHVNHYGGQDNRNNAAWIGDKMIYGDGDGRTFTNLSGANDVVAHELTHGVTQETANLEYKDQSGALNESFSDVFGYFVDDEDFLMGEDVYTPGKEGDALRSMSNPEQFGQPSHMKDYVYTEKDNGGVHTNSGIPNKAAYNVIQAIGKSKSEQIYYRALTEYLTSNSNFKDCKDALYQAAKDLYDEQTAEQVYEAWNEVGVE

Compound	stability against proteolytic degradation (in words) (human leukocyte elastase)	stability against proteolytic degradation (in words) (S. aureus V8 proteinase)	stability against proteolytic degradation (in words) (S. aureus aureolysin)	clearance zone in RDA [1] [mm]	clearance zone in RDA [2] [mm]
CC[C@H](C)[C@H](NC(=O)[C@H](CCCCN)NC(=O)[C@H](CCC(=O)O)NC(=O)[C@H](CCCCN)NC(=O)[C@H](CO)NC(=O)[C@H](CCCCN)NC(=O)[C@H](CCCNC(=N)N)NC(=O)[C@H](Cc1ccccc1)NC(=O)[C@H](Cc1ccccc1)NC(=O)[C@H](CC(=O)O)NC(=O)CNC(=O)[C@H](CC(C)C)NC(=O)[C@@H](N)CC(C)C)C(=O)NCC(=O)N[C@@H](CCCCN)C(=O)N[C@@H](CCC(=O)O)C(=O)N[C@@H](Cc1ccccc1)C(=O)N[C@@H](CCCCN)C(=O)N[C@@H](CCCNC(=N)N)C(=O)N[C@H](C(=O)N[C@H](C(=O)N[C@@H](CCC(N)=O)C(=O)N[C@@H](CCCNC(=N)N)C(=O)N[C@H](C(=O)N[C@@H](CCCCN)C(=O)N[C@@H](CC(=O)O)C(=O)N[C@@H](Cc1ccccc1)C(=O)N[C@@H](CC(C)C)C(=O)N[C@@H](CCCNC(=N)N)C(=O)N[C@@H](CC(N)=O)C(=O)N[C@@H](CC(C)C)C(=O)N[C@H](C(=O)N1CCC[C@H]1C(=O)N[C@@H](CCCNC(=N)N)C(=O)N[C@H](C(=O)N[C@@H](CCC(=O)O)C(=O)N[C@@H](CO)C(=O)O)[C@@H](C)O)C(C)C)[C@@H](C)CC)C(C)C)[C@@H](C)CC [LL-37]	substantial degradation	substantial degradation	substantial degradation	–	–
N[C@@H](Cc1c[nH]c2ccccc12)C(=O)N[C@@H](Cc1c[nH]c2ccccc12)C(=O)N[C@@H](Cc1c[nH]c2ccccc12)C(=O)O [WWW] (H-Trp-Trp-Trp-OH)	–	–	–	0	0
KNKGKKNGKH [KNK10]	–	good stability	good stability	–	–
KNKGKKNGKHWWWWW [KNK10-WWWWW]	–	good stability	good stability	–	–
